Experimental data reported in patent US20260232767A1, “INTERLEUKIN-23 RECEPTOR ANTAGONIST PEPTIDES FOR USE IN THE TREATMENT OF PSORIASIS” (Janssen Pharmaceutica NV, priority 2023, published 2026).

Test system: subjects with moderate-to-severe plaque psoriasis
Experiment: Suicidal ideation or behavior (Columbia-Suicide Severity Rating Scale)
[1] = Combined (all regimens), Week 16-56
[2] = Placebo → 100 mg QD, Week 16-56
[3] = Placebo → 100 mg QD, through Week 56

Protocol: Adverse events were reported and followed by the investigator. Any clinically relevant changes occurring during the study were recorded. Any clinically significant abnormalities persisting at the end of the study/early withdrawal were followed by the investigator until resolution or until a clinically stable condition was reached if possible. The evaluations of safety and tolerability include: physical examinations, vital signs, electrocardiograms, clinical safety laboratory assessments, review of concomitant medication, pregnancy testing, suicidal ideation evaluation via the Columbia—Suicide Severity Rating Scale, and tuberculosis evaluation.

CC(=O)NCCCC[C@@H]1NC(=O)[C@H](Cc2c[nH]c3c(C)cccc23)NC(=O)[C@H]([C@@H](C)O)NC(=O)[C@H](CC(N)=O)NC(=O)[C@@H](NC(C)=O)C(C)(C)SSC(C)(C)[C@@H](C(=O)N[C@@H](Cc2ccc(OCCN)cc2)C(=O)N[C@@H](Cc2ccc3ccccc3c2)C(=O)NC2(C(=O)N[C@@H](CCC(=O)O)C(=O)N[C@@H](CC(N)=O)C(=O)N[C@@H](Cc3cccnc3)C(=O)N(C)CC(N)=O)CCOCC2)NC1=O [IL-23 receptor antagonist peptide, Ac-[Pen]*-N-T-[W(7-Me)]-[Lys(Ac)]-[Pen]*-Phe[4-(2-aminoethoxy)]-[2-Nal]-[THP]-E-N-[3-Pal]-Sarc-NH2 (*[Pen]-[Pen]* formdisulfidebond)]
0: Subjects with 1 - Wish to be dead (25 mg BID, Week 16-56) | Subjects with 2 - Non-specific active suicidal thoughts (25 mg BID, Week 16-56) | Subjects with 3 - Active suicidal ideation with any methods (not plan) without intent to act (25 mg BID, Week 16-56) | Subjects with 4 - Active suicidal ideation with some intent to act, without specific plan (25 mg BID, Week 16-56) | Subjects with 5 - Active suicidal ideation with specific plan and intent (25 mg BID, Week 16-56) | Subjects with 6 - Preparatory acts or behavior (25 mg BID, Week 16-56) | Subjects with 7 - Aborted attempt (25 mg BID, Week 16-56) | Subjects with 8 - Interrupted attempt (25 mg BID, Week 16-56) | Subjects with 9 - Non-fatal suicide attempt (25 mg BID, Week 16-56) | Subjects with 10 - Completed suicide (25 mg BID, Week 16-56) | Subjects with suicidal behavior (25 mg BID, Week 16-56) | Subjects with suicidal ideation (25 mg BID, Week 16-56) | Subjects with suicidal ideation or behavior (25 mg BID, Week 16-56) | Subjects with 1 - Wish to be dead (25 mg BID, through Week 56) | Subjects with 2 - Non-specific active suicidal thoughts (25 mg BID, through Week 56) | Subjects with 3 - Active suicidal ideation with any methods (not plan) without intent to act (25 mg BID, through Week 56) | Subjects with 4 - Active suicidal ideation with some intent to act, without specific plan (25 mg BID, through Week 56) | Subjects with 5 - Active suicidal ideation with specific plan and intent (25 mg BID, through Week 56) | Subjects with 6 - Preparatory acts or behavior (25 mg BID, through Week 56) | Subjects with 7 - Aborted attempt (25 mg BID, through Week 56) | Subjects with 8 - Interrupted attempt (25 mg BID, through Week 56) | Subjects with 9 - Non-fatal suicide attempt (25 mg BID, through Week 56) | Subjects with 10 - Completed suicide (25 mg BID, through Week 56) | Subjects with suicidal behavior (25 mg BID, through Week 56) | Subjects with suicidal ideation (25 mg BID, through Week 56) | Subjects with suicidal ideation or behavior (25 mg BID, through Week 56) | Subjects with 1 - Wish to be dead (25 mg QD, through Week 56) | Subjects with 2 - Non-specific active suicidal thoughts (25 mg QD, through Week 56) | Subjects with 3 - Active suicidal ideation with any methods (not plan) without intent to act (25 mg QD, through Week 56) | Subjects with 4 - Active suicidal ideation with some intent to act, without specific plan (25 mg QD, through Week 56) | Subjects with 5 - Active suicidal ideation with specific plan and intent (25 mg QD, through Week 56) | Subjects with 6 - Preparatory acts or behavior (25 mg QD, through Week 56) | Subjects with 7 - Aborted attempt (25 mg QD, through Week 56) | Subjects with 8 - Interrupted attempt (25 mg QD, through Week 56) | Subjects with 9 - Non-fatal suicide attempt (25 mg QD, through Week 56) | Subjects with 10 - Completed suicide (25 mg QD, through Week 56) | Subjects with suicidal behavior (25 mg QD, through Week 56) | Subjects with suicidal ideation (25 mg QD, through Week 56) | Subjects with suicidal ideation or behavior (25 mg QD, through Week 56) | Subjects with 1 - Wish to be dead (25 mg QD, Week 16-56) | Subjects with 2 - Non-specific active suicidal thoughts (25 mg QD, Week 16-56) | Subjects with 3 - Active suicidal ideation with any methods (not plan) without intent to act (25 mg QD, Week 16-56) | Subjects with 4 - Active suicidal ideation with some intent to act, without specific plan (25 mg QD, Week 16-56) | Subjects with 5 - Active suicidal ideation with specific plan and intent (25 mg QD, Week 16-56) | Subjects with 6 - Preparatory acts or behavior (25 mg QD, Week 16-56) | Subjects with 7 - Aborted attempt (25 mg QD, Week 16-56) | Subjects with 8 - Interrupted attempt (25 mg QD, Week 16-56) | Subjects with 9 - Non-fatal suicide attempt (25 mg QD, Week 16-56) | Subjects with 10 - Completed suicide (25 mg QD, Week 16-56) | Subjects with suicidal behavior (25 mg QD, Week 16-56) | Subjects with suicidal ideation (25 mg QD, Week 16-56) | Subjects with suicidal ideation or behavior (25 mg QD, Week 16-56) | Subjects with 1 - Wish to be dead (50 mg QD, Week 16-56) | Subjects with 2 - Non-specific active suicidal thoughts (50 mg QD, Week 16-56) | Subjects with 3 - Active suicidal ideation with any methods (not plan) without intent to act (50 mg QD, Week 16-56) | Subjects with 4 - Active suicidal ideation with some intent to act, without specific plan (50 mg QD, Week 16-56) | Subjects with 5 - Active suicidal ideation with specific plan and intent (50 mg QD, Week 16-56) | Subjects with 6 - Preparatory acts or behavior (50 mg QD, Week 16-56) | Subjects with 7 - Aborted attempt (50 mg QD, Week 16-56) | Subjects with 8 - Interrupted attempt (50 mg QD, Week 16-56) | Subjects with 9 - Non-fatal suicide attempt (50 mg QD, Week 16-56) | Subjects with 10 - Completed suicide (50 mg QD, Week 16-56) | Subjects with suicidal behavior (50 mg QD, Week 16-56) | Subjects with suicidal ideation (50 mg QD, Week 16-56) | Subjects with suicidal ideation or behavior (50 mg QD, Week 16-56) | Subjects with 1 - Wish to be dead (50 mg QD, through Week 56) | Subjects with 2 - Non-specific active suicidal thoughts (50 mg QD, through Week 56) | Subjects with 3 - Active suicidal ideation with any methods (not plan) without intent to act (50 mg QD, through Week 56) | Subjects with 4 - Active suicidal ideation with some intent to act, without specific plan (50 mg QD, through Week 56) | Subjects with 5 - Active suicidal ideation with specific plan and intent (50 mg QD, through Week 56) | Subjects with 6 - Preparatory acts or behavior (50 mg QD, through Week 56) | Subjects with 7 - Aborted attempt (50 mg QD, through Week 56) | Subjects with 8 - Interrupted attempt (50 mg QD, through Week 56) | Subjects with 9 - Non-fatal suicide attempt (50 mg QD, through Week 56) | Subjects with 10 - Completed suicide (50 mg QD, through Week 56) | Subjects with suicidal behavior (50 mg QD, through Week 56) | Subjects with suicidal ideation (50 mg QD, through Week 56) | Subjects with suicidal ideation or behavior (50 mg QD, through Week 56) | Subjects with 1 - Wish to be dead (100 mg BID, Week 16-56) | Subjects with 2 - Non-specific active suicidal thoughts (100 mg BID, Week 16-56) | Subjects with 3 - Active suicidal ideation with any methods (not plan) without intent to act (100 mg BID, Week 16-56) | Subjects with 4 - Active suicidal ideation with some intent to act, without specific plan (100 mg BID, Week 16-56) | Subjects with 5 - Active suicidal ideation with specific plan and intent (100 mg BID, Week 16-56) | Subjects with 6 - Preparatory acts or behavior (100 mg BID, Week 16-56) | Subjects with 7 - Aborted attempt (100 mg BID, Week 16-56) | Subjects with 8 - Interrupted attempt (100 mg BID, Week 16-56) | Subjects with 9 - Non-fatal suicide attempt (100 mg BID, Week 16-56) | Subjects with 10 - Completed suicide (100 mg BID, Week 16-56) | Subjects with suicidal behavior (100 mg BID, Week 16-56) | Subjects with suicidal ideation (100 mg BID, Week 16-56) | Subjects with suicidal ideation or behavior (100 mg BID, Week 16-56) | Subjects with 1 - Wish to be dead (100 mg BID, through Week 56) | Subjects with 2 - Non-specific active suicidal thoughts (100 mg BID, through Week 56) | Subjects with 3 - Active suicidal ideation with any methods (not plan) without intent to act (100 mg BID, through Week 56) | Subjects with 4 - Active suicidal ideation with some intent to act, without specific plan (100 mg BID, through Week 56) | Subjects with 5 - Active suicidal ideation with specific plan and intent (100 mg BID, through Week 56) | Subjects with 6 - Preparatory acts or behavior (100 mg BID, through Week 56) | Subjects with 7 - Aborted attempt (100 mg BID, through Week 56) | Subjects with 8 - Interrupted attempt (100 mg BID, through Week 56) | Subjects with 9 - Non-fatal suicide attempt (100 mg BID, through Week 56) | Subjects with 10 - Completed suicide (100 mg BID, through Week 56) | Subjects with suicidal behavior (100 mg BID, through Week 56) | Subjects with suicidal ideation (100 mg BID, through Week 56) | Subjects with suicidal ideation or behavior (100 mg BID, through Week 56) | Subjects with 1 - Wish to be dead (100 mg QD, Week 16-56) | Subjects with 2 - Non-specific active suicidal thoughts (100 mg QD, Week 16-56) | Subjects with 3 - Active suicidal ideation with any methods (not plan) without intent to act (100 mg QD, Week 16-56) | Subjects with 4 - Active suicidal ideation with some intent to act, without specific plan (100 mg QD, Week 16-56) | Subjects with 5 - Active suicidal ideation with specific plan and intent (100 mg QD, Week 16-56) | Subjects with 6 - Preparatory acts or behavior (100 mg QD, Week 16-56) | Subjects with 7 - Aborted attempt (100 mg QD, Week 16-56) | Subjects with 8 - Interrupted attempt (100 mg QD, Week 16-56) | Subjects with 9 - Non-fatal suicide attempt (100 mg QD, Week 16-56) | Subjects with 10 - Completed suicide (100 mg QD, Week 16-56) | Subjects with suicidal behavior (100 mg QD, Week 16-56) | Subjects with suicidal ideation (100 mg QD, Week 16-56) | Subjects with 1 - Wish to be dead (100 mg QD, through Week 56) | Subjects with 2 - Non-specific active suicidal thoughts (100 mg QD, through Week 56) | Subjects with 3 - Active suicidal ideation with any methods (not plan) without intent to act (100 mg QD, through Week 56) | Subjects with 4 - Active suicidal ideation with some intent to act, without specific plan (100 mg QD, through Week 56) | Subjects with 5 - Active suicidal ideation with specific plan and intent (100 mg QD, through Week 56) | Subjects with 6 - Preparatory acts or behavior (100 mg QD, through Week 56) | Subjects with 7 - Aborted attempt (100 mg QD, through Week 56) | Subjects with 8 - Interrupted attempt (100 mg QD, through Week 56) | Subjects with 10 - Completed suicide (100 mg QD, through Week 56) | Subjects with suicidal ideation (100 mg QD, through Week 56) | Subjects with 1 - Wish to be dead [1] | Subjects with 2 - Non-specific active suicidal thoughts [1] | Subjects with 3 - Active suicidal ideation with any methods (not plan) without intent to act [1] | Subjects with 4 - Active suicidal ideation with some intent to act, without specific plan [1] | Subjects with 5 - Active suicidal ideation with specific plan and intent [1] | Subjects with 6 - Preparatory acts or behavior [1] | Subjects with 7 - Aborted attempt [1] | Subjects with 8 - Interrupted attempt [1] | Subjects with 9 - Non-fatal suicide attempt [1] | Subjects with 10 - Completed suicide [1] | Subjects with suicidal behavior [1] | Subjects with suicidal ideation [1] | Subjects with 1 - Wish to be dead (Combined, through Week 56) | Subjects with 2 - Non-specific active suicidal thoughts (Combined, through Week 56) | Subjects with 3 - Active suicidal ideation with any methods (not plan) without intent to act (Combined, through Week 56) | Subjects with 4 - Active suicidal ideation with some intent to act, without specific plan (Combined, through Week 56) | Subjects with 5 - Active suicidal ideation with specific plan and intent (Combined, through Week 56) | Subjects with 6 - Preparatory acts or behavior (Combined, through Week 56) | Subjects with 7 - Aborted attempt (Combined, through Week 56) | Subjects with 8 - Interrupted attempt (Combined, through Week 56) | Subjects with 10 - Completed suicide (Combined, through Week 56) | Subjects with suicidal ideation (Combined, through Week 56) | Subjects with 1 - Wish to be dead [2] | Subjects with 2 - Non-specific active suicidal thoughts [2] | Subjects with 3 - Active suicidal ideation with any methods (not plan) without intent to act [2] | Subjects with 4 - Active suicidal ideation with some intent to act, without specific plan [2] | Subjects with 5 - Active suicidal ideation with specific plan and intent [2] | Subjects with 6 - Preparatory acts or behavior [2] | Subjects with 7 - Aborted attempt [2] | Subjects with 8 - Interrupted attempt [2] | Subjects with 9 - Non-fatal suicide attempt [2] | Subjects with 10 - Completed suicide [2] | Subjects with suicidal behavior [2] | Subjects with suicidal ideation [2] | Subjects with suicidal ideation or behavior [2] | Subjects with 1 - Wish to be dead [3] | Subjects with 2 - Non-specific active suicidal thoughts [3] | Subjects with 3 - Active suicidal ideation with any methods (not plan) without intent to act [3] | Subjects with 4 - Active suicidal ideation with some intent to act, without specific plan [3] | Subjects with 5 - Active suicidal ideation with specific plan and intent [3] | Subjects with 6 - Preparatory acts or behavior [3] | Subjects with 7 - Aborted attempt [3] | Subjects with 8 - Interrupted attempt [3] | Subjects with 9 - Non-fatal suicide attempt [3] | Subjects with 10 - Completed suicide [3] | Subjects with suicidal behavior [3] | Subjects with suicidal ideation [3] | Subjects with suicidal ideation or behavior [3]
